For series [1] the following is noted: e.g. 1 M trehalose; cited from earlier work.
Series [2] can be described thus: Association (partition) of the NBD amphiphiles with native membranes, NBD fluorescence. Format: physicochemical, High-Five insect cells. Conditions: for KPW→M: aqueous phase to native membrane. How it is done:
(§1) The membranes were diluted to the chosen concentration with simplified ATPase assay buffer and warmed to 37 °C. The NBD amphiphiles were added from stocks in DMSO (final DMSO 1% v/v) by squirting the required volume into the membrane solution under gentle vortex. Fluorescence intensity was measured after 15 to 30 min incubation at 37 °C using a Cary Eclipse spectrofluorimeter (Varian, Singapore). The path length of the sample container was selected to guarantee that scattering at the excitation wavelength was smaller than 0.1 while maintaining a good signal/noise ratio (3, 5, or 10 mm).
(§2) The increase in fluorescence of the NBD amphiphiles when associated with the model membranes was well described by a simple partition (Equation (S3)). The low affinity of the less lipophilic amphiphiles for the native membranes required the use of high membrane concentrations, and the fluorescence was measured with the plate reader SpectraMax iD5 (Molecular Devices, Berkshire, UK), where the reading setup is not very sensitive to scatter. To guarantee that the high scatter intensity was not leading to artifacts in the measured fluorescence intensity of NBD–C4, titrations of NBD-C6 and NBD–C8 were also performed in the same plate. For these two latter amphiphiles, the results obtained for the partition coefficient were similar to those obtained for experiments with low scatter intensity. A small decrease in the fluorescence intensity from NBD–C8 was nevertheless observed at very high scatter intensities (OD ≥ 0.5), which was used to correct the signal from the less lipophilic amphiphiles, see Supplementary Information (Figure S5 and Equation (S4)). The molar volume considered for the lipid was 0.8 dm^3/mol, and 1.2 g/mL was considered for the density of the membrane proteins.
S3 – Partition of the NBD amphiphiles to lipid bilayers and native membranes The fluorescence increase that accompanies the association of the NBD amphiphiles with the model membra nes was well defined by a simple partition, equation S3. […]
where IfW and If M are respec ti vel y the fluorescence intensity when all fluorescent amphiphile is in the aqueous phase and ass oci ated with the membranes, LbK is the partition co eff icient P between the aqueous and the lipid bilayer, V is the molar vo l u m e of the lipid when in the lipid L bi l ayer, and [L] is the lipid concentration.
To characterize the association of the NBD amphiphiles with the native membranes the whole membrane vo lume was considere d, including the lipid bilayer and the membrane proteins. For the ca se of the less lipophilic amphiphiles NBD‐C4 and NBD‐C6, a sig nif ica nt scatter from the […]
both to the larger size of the vesicles (ca 1 µm diameter, [1]) and to the high refractive index of the native membranes. The magnitude of the scatter effect was quantified through the best fit […]
partition to the membranes at co n ce ntrations where scatter is not significant. The modified […]
where s is the scatter correction factor for a given concentration of native membranes, If W and IfM are respectively the fluorescence intensity when all fluorescent amphiphile is in the aqueous phase and associated with the membranes, WMK → is the partition coefficient between the P aqueous phase and the native membrane, V is the molar volume of the lipid when in the L membrane and [L] the molar concentration of the membrane lipids, V is the vo lume occupied P by 1 g of membrane protein (assuming a density of 1.2 g/mL) and [P] is the protein concentration in units of ma ss per volume.
Typical results obtained for the variation of the fluorescence intensity at 540 nm of the NBD‐Cn fluorophores equilibrated with increasing concentrations of native membranes, are shown in figure S3. The fluorescence intensity was measured in black 96 well plates with the plate reader […]
SpectraMax iD5. The NBD‐Cn concentrations we re 0.5 µM for NBD‐C8 , 1 µM for NBD‐C6, and 2 µM for NBD‐C4, and the total volume per well was 150 µL. […]

Series [3] is described as follows: Association (partition) with model membranes (LUVs POPE:POPC:POPS 45:35:20). Format: physicochemical. Conditions: aqueous phase to model lipid bilayer. The procedure:
The model membranes with a phospholipid composition representative of that of the native membranes (POPE:POPC:POPS 45:35 20) were prepared from stock solutions of the required lipids in chloroform or in chloroform/methanol (87/13, v/v), as described before. The solvent-free lipid residue was hydrated at 40 °C with previously heated simplified ATPase assay buffer (with all components except Ouabain and DTT). Large Unilamelar Vesicles were prepared by extrusion through two-staked polycarbonate filters (100 nm pore diameter), and the size of the LUVs was analyzed by dynamic light scattering (Zetasizer Nano ZS, Malvern, UK) being close to the filter pore size.
as §1, §2
S3 – Partition of the NBD amphiphiles to lipid bilayers and native membranes
The fluorescence increase that accompanies the association of the NBD amphiphiles with the
model membra nes was well defined by a simple partition, equation S3.
If 1540 nm Lb= + S3, KVL[]
where IfW and If M are respec ti vel y the fluorescence intensity when all fluorescent amphiphile is
in the aqueous phase and ass oci ated with the membranes, LbK is the partition co eff icient P
between the aqueous and the lipid bilayer, V is the molar vo l u m e of the lipid when in the lipid L
bi l ayer, and [L] is the lipid concentration. […]

In a further series the test system is P–gp. In words: Partition coefficient to membrane protein from Equations (1) and (2), binding to P–gp only. The format is physicochemical, mouse. Conditions: binding to the protein P–gp only. The source says: (§3) From the partition coefficient obtained for the native membranes, KPW→M , and that for the model lipid bilayers, KPW→Lb , one can calculate the partition coefficient between the aqueous phase and the proteins in the membrane, KPW→P , and from the lipid bilayer to the proteins, KPLb→P , Equations (1) and (2), [40]. (1) KPW→M VM=KPW→PVP+KPW→Lb VLb (2) KPLb→P=KPW→P/KPW→Lb
(§4) In Equation (1) it is necessary to include the volume occupied by the proteins, and the values obtained will, therefore, depend on whether it is considered that the amphiphile may interact with all proteins in the membrane or with P–gp only.

Series [4] is described as follows: Partition coefficient to membrane proteins from Equations (1) and (2), all membrane proteins with equal affinity. The format is physicochemical, High-Five insect cells. As to conditions: binding to all membrane proteins with equal affinity.
Text: as §3, §4

For series [5] the following is noted: cited from earlier work.
Series [6] deals with T1, mP–gp (Mus musculus, UniProt P21447).
T1 construct: made in house; host or cells: High-Five insect cells (Invitrogen), recombinant baculovirus; total membrane vesicles
T1 sequence (P21447 whole entry): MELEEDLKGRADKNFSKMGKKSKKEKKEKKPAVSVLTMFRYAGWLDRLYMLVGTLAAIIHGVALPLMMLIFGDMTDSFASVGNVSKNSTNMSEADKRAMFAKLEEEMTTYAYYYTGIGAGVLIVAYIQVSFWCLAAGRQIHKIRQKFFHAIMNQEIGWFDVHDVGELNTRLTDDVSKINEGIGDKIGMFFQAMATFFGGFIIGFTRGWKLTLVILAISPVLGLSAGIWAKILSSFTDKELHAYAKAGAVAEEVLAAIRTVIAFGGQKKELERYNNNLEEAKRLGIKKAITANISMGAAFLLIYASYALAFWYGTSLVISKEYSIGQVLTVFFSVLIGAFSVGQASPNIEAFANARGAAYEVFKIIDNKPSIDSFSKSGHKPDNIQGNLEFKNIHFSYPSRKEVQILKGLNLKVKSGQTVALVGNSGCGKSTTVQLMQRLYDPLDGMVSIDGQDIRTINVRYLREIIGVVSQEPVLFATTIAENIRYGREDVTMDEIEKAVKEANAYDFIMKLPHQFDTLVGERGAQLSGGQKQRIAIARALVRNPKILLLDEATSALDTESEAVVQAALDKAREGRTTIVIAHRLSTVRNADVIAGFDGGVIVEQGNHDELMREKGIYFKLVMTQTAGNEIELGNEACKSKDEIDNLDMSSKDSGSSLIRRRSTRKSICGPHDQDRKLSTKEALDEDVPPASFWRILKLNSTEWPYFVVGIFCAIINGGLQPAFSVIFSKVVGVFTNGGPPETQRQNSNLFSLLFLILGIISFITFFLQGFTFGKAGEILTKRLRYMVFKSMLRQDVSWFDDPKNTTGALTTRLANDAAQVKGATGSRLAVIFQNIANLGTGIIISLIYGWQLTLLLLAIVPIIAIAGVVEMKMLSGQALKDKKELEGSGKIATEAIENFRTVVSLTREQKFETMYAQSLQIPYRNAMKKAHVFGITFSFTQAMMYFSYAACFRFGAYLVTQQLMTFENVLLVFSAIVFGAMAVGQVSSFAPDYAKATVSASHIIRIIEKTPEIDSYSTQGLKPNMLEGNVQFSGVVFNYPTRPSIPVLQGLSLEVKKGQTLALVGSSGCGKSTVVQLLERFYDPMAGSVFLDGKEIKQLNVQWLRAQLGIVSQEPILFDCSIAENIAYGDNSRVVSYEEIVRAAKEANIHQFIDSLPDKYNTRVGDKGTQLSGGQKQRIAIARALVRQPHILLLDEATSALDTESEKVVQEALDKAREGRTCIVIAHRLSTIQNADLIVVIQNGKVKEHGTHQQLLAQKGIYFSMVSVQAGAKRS
In words: Photolabeling of P–gp with [125I]-IAAP / IAAP displacement. Format: binding. Conditions: concentration of 2 μM, positive control. The procedure: The native membranes of High-Five insect cells expressing mP–gp (1.0 mg/mL) were incubated at room temperature with the indicated concentrations of the inhibitor for 5 min. IAAP (5 to 7 nM) was later added, and the reaction mixture was further incubated for 5 min under subdued light. The samples were photocross-linked with 366 nm UV light for 10 min at room temperature, followed by electrophoresis and quantification, as described previously. The raw data are shown in the Supplementary Information (Figure S4). The results were first analyzed with the usual equation, considering the total concentration of IAAP and NBD amphiphile, as well as competitive inhibition of IAAP binding, see Supplementary Information (Equation (S2)). The dissociation constant considered for IAAP was taken from the literature, 412 nM [15]. The results were also analyzed with a formalism derived in this manuscript considering the distribution of the NBD amphiphile in the distinct environments (aqueous phase, lipid bilayer, and P–gp), the distribution of IAAP between the aqueous media and P–gp, and several equal and independent binding sites in P–gp’s binding pocket, Equation (10).
In this assay, in addition to the binding of the NBD amphiphiles to P–gp binding pocket, it is also necessary to consider the binding of IAAP. The concentration of IAAP used in the assay (5 nM) is several orders of magnitude smaller than that of the amphiphiles in study, and it is also smaller than the total concentration of P–gp (59 nM). Therefore, Equation (8) may be used to calculate the concentration of free ligand and protein. The fraction of IAAP bound to P–gp may then be calculated from Equation (10), where P^* is the concentration of P–gp available for IAAP binding. (10) IP/IT=−b−b^2−4ac/2aa=1; b=−1+KdIAAP/IT+P^*/IT; c=P^*/IT
The number of binding sites in P–gp binding pocket was varied from 1 to 5, and three situations were considered in the analysis: (i) full inhibition of IAAP binding when at least one NBD amphiphile is in the P–gp binding pocket ( i≥1 ), corresponding to P^*=P; (ii) inhibition of IAAP binding only when P–gp is fully saturated ( i=n ), corresponding to P^*=P+∑i=1n−1PLi; and (iii) an intermediate situation with IAAP displacement for i≥n−1 , corresponding to P^*=P+∑i=1n−2PLi .
The displacement of IAAP from P–gp binding pocket was calculated from Equation (11), where IP0 is the concentration of IAAP bound to P–gp in the absence of the NBD amphiphiles. (11) IAAP displacement %=100IP0−IP/IP0

Series [7] has as its target T1, mP–gp. Set-up: method as in PMID 28283574. Conditions: positive control; read-out: KI, inhibition of IAAP binding; cited from earlier work.

Consider `CCCCCCCCCCNc1ccc([N+](=O)[O-])c2nonc12` [NBD-C10], for which, in series [1], the “increase of CAC in the presence of co-solvent” value is given as 6 fold.

Consider `CCCCCCNc1ccc([N+](=O)[O-])c2nonc12` [NBD-C6], for which the “LogKP, association with the native membranes” value in series [2] (37 °C, simplified ATPase assay buffer) is given as 3.20 ± 0.26. In addition, the KPW→M is 3.9 × 10^3 in series [2] (membrane volume = phospholipid bilayer and P–gp (binding to the protein P–gp only)); 1.6 × 10^3 in series [2] (membrane volume = phospholipid bilayer and all proteins (binding to all membrane proteins with equal affinity)). Further, the KPW→Lb in series [3] (section: binding to all membrane proteins with equal affinity) and in series [3] (section: binding to the protein P–gp only) was 2.4 × 10^3 each time. Besides, the KPW→P with P–gp (aqueous phase to protein) is reported as 1.0 × 10^5; in series [4] (aqueous phase to proteins), 1.0 × 10^3. For the same compound, the KPLb→P came out at 43 in the series on P–gp (lipid bilayer to protein) and 0.43 in series [4] (lipid bilayer to proteins). Besides, the “LogKP, association with POPC bilayers” value in series [5] is 3.79.

Take `COc1cc2c(cc1OC)CN(CCc1ccc(NC(=O)c3cc(OC)c(OC)cc3NC(=O)c3cnc4ccccc4c3)cc1)CC2` [Tariquidar, reference compound]: the “Inhibition of IAAP binding” value on mP–gp [6] is “efficient inhibition of IAAP binding”. The Ki (commonly the equilibrium dissociation constant of an inhibitor or competing ligand from its target) at mP–gp [7] is 200 nM.

The values above are taken from publication PMC9862096, “Interaction of a Homologous Series of Amphiphiles with P-glycoprotein in a Membrane Environment—Contributions of Polar and Non-Polar Interactions” (Pharmaceutics, 2023).
